The series in a line: physchem.

Description: The pKa of a lipid is the pH at which 50% of the lipids are charged, lying halfway between the point where the lipids are completely charged and the point where the lipids are completely uncharged.
The pKa of a lipid is measured in water at standard temperature and pressure using the following technique: • 2 mM solution of lipid in ethanol is prepared by weighing the lipid and dissolving in ethanol. 0.3 mM solution of fluorescent probe toluene nitrosulphonic acid (TNS) in ethanol:methanol 9:1 is prepared by first making 3 mM solution of TNS in methanol and then diluting to 0.3 mM with ethanol. • An aqueous buffer containing sodium phosphate, sodium citrate sodium acetate and sodium chloride, at the concentrations 20 mM, 25 mM, 20 mM and 150 mM, respectively, is prepared. The buffer is split into eight parts and the pH adjusted either with 12N HCl or 6N NaOH to 4.44-4.52, 5.27, 6.15-6.21, 6.57, 7.10-7.20, 7.72-7.80, 8.27-8.33 and 10.47-11.12. 400 uL of 2 mM lipid solution and 800 uL of 0.3 mM TNS solution are mixed. • 7.5 μL of probe/lipid mix are added to 242.5 μL of buffer in a 1 mL 96 well plate. This is done with all eight buffers. […]

For `CCCCC/C=C\C/C=C\CCCCCCCCOCC(CN1CCC(C)(C)C1)OCCOCCO[C@H]1CC[C@@]2(C)C(=CC[C@H]3[C@@H]4CC[C@H]([C@H](C)CCCC(C)C)[C@@]4(C)CC[C@@H]32)C1` (some centres unmarked) [RV05], the pKa turned out to be 5.85. With `CCCCC/C=C\C/C=C\CCCCCCCCOCC(CN1CCCC1C)OCCOCCOCCNC(=O)CCC(=O)O[C@H]1CC[C@@]2(C)C(=CC[C@H]3[C@@H]4CC[C@H]([C@H](C)CCCC(C)C)[C@@]4(C)CC[C@@H]32)C1` (some centres unmarked) [RV10] the figure was 7.86.

As a reminder, the pKa is the pH at which an ionisable group is half protonated. A lower pKa goes with a stronger acid or weaker base.

These data come from patent US20130189351A1, “LIPIDS SUITABLE FOR LIPOSOMAL DELIVERY OF PROTEIN CODING RNA” (priority 2010, published 2013).
